Measured values from paper PMC3278406 (PLoS ONE, 2012).

How the values were obtained:
[1] = molecular target: Stx2B (Stx2 B-subunits) (Escherichia phage 933W, UniProt P09386); type: binding, Escherichia coli O157:H7
[2] = molecular target: Stx1B (Stx1 B-subunits) (Bacteriophage H30, UniProt P69178); type: binding, Escherichia coli O157:H7; details: read-out: Kd of Stx1B for glycan
Sequence of Stx1B (Stx1 B-subunits) (P69178 21-89 limits assumed): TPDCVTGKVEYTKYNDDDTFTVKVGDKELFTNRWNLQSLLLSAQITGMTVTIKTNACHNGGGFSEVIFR

Sequence of Stx2B (Stx2 B-subunits) (P09386 20-89 limits assumed): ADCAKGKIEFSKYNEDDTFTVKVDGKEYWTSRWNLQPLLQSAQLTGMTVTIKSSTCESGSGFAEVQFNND

**Q.** What does the source list for Galα1-4Galβ1-4Glc [Pk]?
**A.** binding of Stx2B to glycan [1]: no binding; Kd ([1]; read-out: Kd of Stx2B for glycan): > 12 mM; Kd [2]: 4 ± 0.3 mM
